Reference: patent US20200062719A1, “Application of Imidazopyridine Derivatives in Regenerative Medicine” (University of Heidelberg, priority 2018, published 2020)

Key:
[1] = tested on: Oct4; test: Luciferase reporter assay in NCCIT-Oct4 cells; assay type: cell-based, human; conditions: histone demethylase inhibitors, 48 h
Protocol: The ability of the lead compound to induce Oct4 at translational level was tested in a luciferase reporter cell line in human embryonic carcinoma NCCIT cells driven by Oct4 response elements (NCCIT-Oct4). The compound lead to a nearly 10-fold induction of Oct4 at 10 nM compared to untreated cells (FIG. 1B). Consequently, the lead compound was named “Oct4 inducing compound 3” (O4I3).
Luciferase reporter assay was performed using Beatle Juice Kit (PJK, Germany) according to the manufacturer's instruction. NCCIT-Oct and NCCIT-Nanog reporter cells were plated into a 24-well plate (100,000 cells/well) for 24 h. Cells were treated with compounds as indicated and harvested with luciferase lysis buffer (25 mM Tris phosphate buffer pH=7.8, 4 mM EGTA, 1% Triton X-100, 10% glycerol and 2 mM fresh DTT, filtered through 0.45 μm sterile filter) at 37° C. for 15 min. The protein concentration was determined by Bradford assay (Sigma, Germany). 100 μL reaction mixture containing luciferin and ATP was added to 20 μL cell lysis in a white plate (Gibco, Germany), incubated for 5 min and measured by a luminometer plate-reader. The activity was determined as percent luminous intensity of treated cells over control cells from at least five-independent experiments.

[2] = tested on: Oct4; test: Luciferase reporter assay in NCCIT-Oct4 cells; assay type: cell-based, human; conditions: 100 nM, NCCIT-Oct4 cells
[3] = tested on: promoter of Oct4; test: ChIP-qPCR of H3K4Me3 at the promoter of Oct4 in reprogramming-resistant fibroblasts; assay type: cell-based, human; conditions: HF4, in combination with OSKM overexpression
From the text: The importance of active tri-methylation of histone H3 lysine 4 (H3K4Me3) in promoting transcription factors binding to an ‘open’ chromatin state and thereby initiation of reprogramming is known in the art. In good agreement, the inventors found the abundance of H3K4Me3 in O4I3-treated reprogramming-resistant fibroblasts by immunostaining (FIG. 14) and immunoblotting (FIG. 5B). To directly study if O4I3 facilitated the binding of H3K4Me3 to the promoter of Oct4, a CHIP-qPCR experiment was performed.
In reprogramming-resistant HF4, the level of H3K4Me3 at the promoter of OCT4 was increased by OSKM, but was still nearly 1,000-fold lower than that in PSCs (FIG. 19A). […] However, a clear influence on H3K4 methylation was not observed in the presence of KDM5B-, KDM5C-, or KDM5D-siRNA (FIG. 19A). […] Indeed, the reprogramming efficiency is negatively correlated with the expression of KDM5A in 11 HFs (FIG. 19D). Moreover, KDM5A siRNA increased the global level of H3K4Me3 in a dose-dependent manner (FIG. 19E). Of note, the alternation in the occupation of H3K27Me3 at the promoter of OCT4 was more refractory to chemical inhibition or genetic repression of KDM5s in the inventors' experiments (FIG. 19B). […]

[4] = tested on: human fibroblasts; test: qRT-PCR of reprogramming associated genes in human fibroblasts; assay type: cell-based; design: expression of OCT4, SOX2, and E-Cadherin in HFs: dose or concentration left out as unconfirmed; conditions: JIB-04 treated fibroblasts
Protocol: Analyzing the effects of O4I3 on human fibroblasts, the activation of reprogramming associated genes, including an about 10-fold induction of Oct4, Nanog and Lin28, and an about 100-fold increase of Sox2 and E-Cadherin mRNA levels was detected. In particular, expression of several essential genes for reprogramming is equal to those in pluripotent stem cells, such as Esrrb, FGF2 and Sall4 (FIG. 12).
Quantitative reverse-transcription real-time-PCR was performed using a Light Cycler 96 (Roche, Germany) following the manufacturer's protocol. Briefly, total RNA was isolated from cells using TRIzol (Qiagen, Germany) or NucleoSpin®RNA Plus (Macherey-Nagel, Germany). The same amount of RNA was used to reverse-transcriptional synthesize cDNA by using random primers ProtoScript® First Strand cDNA Synthesis Kit (NEB, Germany). qPCR was performed using the SYBR Green PCR master mix (qPCRBIO SyGreen Mix Lo-Rox, Nippon Genetics, Germany) and the primer pairs indicated below (MWG, Eurofins, Germany). Actin was used as an endogenous control. Data were normalized to the value of untreated cells showing the mean±SD of quadruplicates and are representative of at least three independent experiments.

[5] = tested on: OCT4-promoter; test: Luciferase reporter assay in HEK-OCT4 cells; assay type: cell-based
Protocol: In an effort to find such chemical structures able to induce pluripotency, a high-throughput screening (HTS) was performed. The screen was based on cellular luciferase reporter assays under the control of the promoter activity of a pluripotency-associated transcription factor (Oct4) in HEK293 cells.
The inventors adopted Hantzsch thiazole synthesis (FIG. 20A) and produced a series of new O4I2-ester derivatives (FIG. 20B). Their activities were measured in three luciferase report cell lines, namely HEK-OCT4, driven by the activation of OCT4-promoter, and NCCIT-OCT4 and NCCIT-NANOG, whose intensities are controlled by endogenous OCT4 and NANOG respectively. […] Carboxylesterase 1 (CES1) is an enzyme majorly contributing to ester-to-acid conversion.

Compound | induction of OCT4 expression in NCCIT-OCT4 reporter cell line [1] | Oct4 inducing activity as compared to the activity of O4I3 (101) [2] | also measured
CC(C)c1c(-c2ccccc2)[nH]c2c(C#N)cnn2c1=O [CPI-455] | 3 fold | – | –
Cc1ccc2nc(-c3ccc(F)cc3)cn2c1 [Compound 102, 2-(4-fluorophenyl)-6-methyl-imidazo[1,2-a]pyridine] | – | increased the activity | –
Cc1ccc2nc(-c3ccc(Cl)cc3)cn2c1 [Compound 103, 2-(4-chlorophenyl)-6-methyl-imidazo[1,2-a]pyridine] | – | increased the activity | –
Cc1ccc2nc(-c3ccc(Br)cc3)cn2c1 [Compound 104, 2-(4-bromophenyl)-6-methyl-imidazo[1,2-a]pyridine] | – | increased the activity | –
Cc1ccc2nc(-c3ccc([N+](=O)[O-])cc3)cn2c1 [Compound 105, 6-methyl-2-(4-nitrophenyl)imidazo[1,2-a]pyridine] | – | significantly reduced the induction | –
COc1ccc(-c2cn3cc(C)ccc3n2)cc1 [Compound 106, 2-(4-methoxyphenyl)-6-methyl-imidazo[1,2-a]pyridine] | – | significantly reduced the induction | –
Cc1ccc2nc(-c3ccc(O)cc3)cn2c1 [Compound 107, 4-(6-methylimidazo[1,2-a]pyridin-2-yl)phenol] | – | significantly reduced the induction | –
Cc1ccc2nc(-c3ccc(C#N)cc3)cn2c1 [Compound 108, 4-(6-methylimidazo[1,2-a]pyridin-2-yl)benzonitrile] | – | significantly reduced the induction | –
Cc1ccc2nc(-c3ccccc3)cn2c1 [Compound 109, 6-methyl-2-phenyl-imidazo[1,2-a]pyridine] | – | not affected | –
CCOC(=O)CCNc1cc(N2CCc3ccccc3CC2)nc(-c2ccccn2)n1 [GSK-J4] | not | – | –
Clc1ccc(N/N=C(\c2ccccc2)c2ccccn2)nc1 [JIB-04, reference compound] | 5 fold | – | levels of H3K4Me3 at the promoter of OCT4 [3]: significantly elevated; expression of OCT4, SOX2, and E-Cadherin in HFs [4]: induction
O=C(O)c1csc(Nc2ccc(Cl)cc2)n1 [O4I2-COON, 2-(4-chlorophenylamino)thiazole-4-carboxylic acid] | – | – | activity in HEK-OCT4 cells [5]: inactive
CN(C)NC(=O)CCC(=O)O [daminozide] | not | – | –
